Experimental findings from ChEMBL document CHEMBL4813974 (Eur J Med Chem, 2021) are described below.

Activity calls are given as the source filed them. The calls are words filed in the database; no cut-off is given here.

The target in assay [1] is Neutral ceramidase (Homo sapiens, UniProt Q9NR71). As to the kind of experiment: Inhibition of human ASAH2 stably over expressed in human A-375 cell lysate using RBM14C24 fluorogenic substrate measured at 20 uM at pH 7.5 by fluorescence spectrophotometry. The assay is classed as subcellular.
For assay [2], the target named is T1, Acid ceramidase (Homo sapiens) (UniProt Q13510).
T1 sequence (whole entry): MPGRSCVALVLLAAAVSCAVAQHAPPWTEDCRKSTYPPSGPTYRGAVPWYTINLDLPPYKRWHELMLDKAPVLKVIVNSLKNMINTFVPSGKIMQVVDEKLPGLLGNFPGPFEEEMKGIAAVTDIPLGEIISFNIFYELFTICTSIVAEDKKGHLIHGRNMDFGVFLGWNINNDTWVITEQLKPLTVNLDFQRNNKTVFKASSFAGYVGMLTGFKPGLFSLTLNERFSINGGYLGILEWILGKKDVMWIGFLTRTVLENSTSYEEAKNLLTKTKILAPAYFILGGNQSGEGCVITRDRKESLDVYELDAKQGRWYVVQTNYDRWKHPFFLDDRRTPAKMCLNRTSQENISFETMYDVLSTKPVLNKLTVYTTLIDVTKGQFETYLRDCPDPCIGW
As to the kind of experiment: Inhibition of human ASAH1 stably over expressed in human A-375 cell lysate using RBM14C12 fluorogenic substrate measured at 1:1 compound to substrate molar ratio at pH 4.5 by fluorescence spectrophotometry. The assay is classed as subcellular.

In assay [3] the target is T2, Alkaline ceramidase 3 (Mus musculus) (UniProt Q9D099).
T2 sequence (whole entry): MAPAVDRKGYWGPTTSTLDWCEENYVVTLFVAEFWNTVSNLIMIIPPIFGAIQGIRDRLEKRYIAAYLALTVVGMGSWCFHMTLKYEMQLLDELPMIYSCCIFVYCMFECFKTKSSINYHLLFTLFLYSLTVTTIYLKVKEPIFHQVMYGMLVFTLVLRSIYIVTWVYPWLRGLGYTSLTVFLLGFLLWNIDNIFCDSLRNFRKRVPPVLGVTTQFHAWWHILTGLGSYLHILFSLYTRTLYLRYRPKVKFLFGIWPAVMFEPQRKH
In words: Inhibition of ACER3 in ASAH2-null mouse embryonic fibroblast lysate using RBM14C16 fluorogenic substrate measured at 1:1 substrate to compound molar ratio at pH 9 in presence of Ca2+ by fluorescence spectrophotometry. Particulars: MEF.

Assay [4] has as its target T1, Acid ceramidase (Homo sapiens). In words: Inhibition of human ASAH1 stably over expressed in human A-375 cell lysate using RBM14C12 fluorogenic substrate measured at 2:1 compound to substrate molar ratio at pH 4.5 by fluorescence spectrophotometry. The assay is classed as subcellular.

Neutral ceramidase, sequence (Q9NR71 whole entry): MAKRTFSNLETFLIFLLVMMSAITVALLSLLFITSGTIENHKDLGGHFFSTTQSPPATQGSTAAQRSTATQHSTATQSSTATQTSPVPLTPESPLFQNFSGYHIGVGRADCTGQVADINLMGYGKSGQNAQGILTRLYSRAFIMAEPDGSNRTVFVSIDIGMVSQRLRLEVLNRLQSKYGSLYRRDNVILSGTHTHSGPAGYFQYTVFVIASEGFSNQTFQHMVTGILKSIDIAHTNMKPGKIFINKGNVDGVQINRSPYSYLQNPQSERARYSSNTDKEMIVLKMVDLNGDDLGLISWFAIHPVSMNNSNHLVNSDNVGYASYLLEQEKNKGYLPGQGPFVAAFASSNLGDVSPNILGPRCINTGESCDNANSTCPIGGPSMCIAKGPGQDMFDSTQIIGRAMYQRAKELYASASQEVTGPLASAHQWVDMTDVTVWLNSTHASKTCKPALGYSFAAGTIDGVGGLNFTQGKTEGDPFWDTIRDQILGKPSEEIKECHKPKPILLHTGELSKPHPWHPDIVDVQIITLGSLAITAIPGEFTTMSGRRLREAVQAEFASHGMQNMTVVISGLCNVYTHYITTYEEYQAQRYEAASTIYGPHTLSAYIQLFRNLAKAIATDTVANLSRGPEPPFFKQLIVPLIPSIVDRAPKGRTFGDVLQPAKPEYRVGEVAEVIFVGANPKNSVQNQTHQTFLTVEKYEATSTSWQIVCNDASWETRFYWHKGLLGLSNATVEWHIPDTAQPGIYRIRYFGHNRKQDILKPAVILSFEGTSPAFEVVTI

For `CCCCCCCCCCCC/C=C/[C@@H](O)[C@@H](C)NC(=O)c1ccc(OCCCCCOCOC)cc1`, the inhibition entry in assay [1] and in assay [2] was “inactive” each time.

Regarding `CCCCCCCCCCCC/C=C/[C@@H](O)[C@@H](C)NC(=O)c1ccc(CC)cc1`, the inhibition result in assay [1] and in assay [2] was “inactive” in each case.

Take `CCCCCCCCCCCCCC[C@@H](O)[C@@H](C)NC(=O)CBr`: the inhibition result in assay [3] and in assay [4] was “inactive” each time.

As for `CCCCCCCCCCCC/C=C/[C@@H](O)[C@@H](C)NC(=O)c1ccc(OCCOCOC)cc1`, the inhibition entry in assay [1] and in assay [2] was “inactive” each time.

Take `CCCCCCCCCCCC/C=C/[C@@H](O)[C@@H](C)NC(=O)c1ccc(OCCCCCCCOCOC)cc1`: the inhibition result in assay [1] and in assay [2] was “inactive” each time.

`CCCCCCCCCCCC/C=C/[C@H](O)[C@@H](C)NC(=O)CBr`: the inhibition entry in assay [3] and in assay [4] was “inactive” each time.

`CCCCCCCCCCCC/C=C/[C@@H](O)[C@@H](C)NC(=O)c1ccc(C(C)(C)C)cc1`: the inhibition entry in assay [1] and in assay [2] was “inactive” throughout.

For `CCCCCCCCCCCC/C=C/[C@@H](O)[C@@H](C)NC(=O)c1ccc(CCCCCC)cc1`, the inhibition entry in assay [1] and in assay [2] was “inactive” each time.

`CCCCCCCCCCCCCC[C@H](O)[C@H](C)NC(=O)CCCCCCC`: the inhibition result in assay [3] and in assay [4] was “inactive” throughout.

For the compound `CCCCCCCCCCCC/C=C/[C@@H](O)[C@@H](C)NC(=O)c1ccc(OCCCCCCC)cc1`, the inhibition entry in assay [1] and in assay [2] was “inactive” each time.

Turning to `CCCCCCCCCCCC/C=C/[C@@H](O)[C@H](C)NC(=O)C(C)(C)C`, the inhibition entry in assay [3] and in assay [4] was “inactive” throughout.

Consider `CCCCCCCCCCCCCC[C@@H](O)[C@@H](C)NC(=O)C(C)(C)C`, for which the inhibition entry in assay [3] and in assay [4] was “inactive” each time.

As to `CCCCCCCCCCCCCC[C@H](O)[C@@H](C)N`, the inhibition entry in assay [3] and in assay [4] was “inactive” each time.

With `CCCCCCCCCCCC/C=C/[C@@H](O)[C@@H](C)NC(=O)c1ccc(CCC)cc1`, the inhibition entry in assay [1] and in assay [2] was “inactive” each time.

As for `CCCCCCCCCCCCCC[C@@H](O)[C@H](C)NC(=O)CBr`, the inhibition result in assay [3] and in assay [4] was “inactive” throughout.

On to `CCCCCCCCCCCCCC[C@H](O)[C@@H](C)NC(=O)CBr`, for which the inhibition result in assay [3] and in assay [4] was “inactive” each time.

On to `CCCCCCCCCCCC/C=C/[C@@H](O)[C@@H](C)NC(=O)c1ccc(CCCCC)cc1`, for which the inhibition result in assay [1] and in assay [2] was “inactive” in each case.

In the case of `CCCCCCCCCCCC/C=C/[C@@H](O)[C@@H](C)NC(=O)c1ccccc1`, the inhibition result in assay [1] and in assay [2] was “inactive” in each case.

For the compound `CCCCCCCCCCCCCC[C@H](O)[C@@H](C)NC(=O)C(C)(C)C`, the inhibition entry in assay [3] and in assay [4] was “inactive” each time.

Consider `CCCCCCCCCCCC/C=C/[C@H](O)[C@@H](C)NC(=O)C(C)(C)C`, for which the inhibition result in assay [3] and in assay [4] was “inactive” in each case.

`CCCCCCCCCCCC/C=C/[C@@H](O)[C@@H](C)NC(=O)C(C)(C)C`: the inhibition entry in assay [3] and in assay [4] was “inactive” each time.

With `CCCCCCCCCCCC/C=C/[C@@H](O)[C@H](C)NC(=O)c1ccc(CCCCCCC)cc1`, the inhibition result in assay [3] and in assay [4] was “inactive” in each case.

Consider `CCCCCCCCCCCC/C=C/[C@H](O)[C@H](C)NC(=O)CCCCCCC`, for which the inhibition result in assay [3] and in assay [4] was “inactive” each time.

With `CCCCCCCCCCCC/C=C/[C@H](O)[C@@H](C)N`, the inhibition result in assay [3] and in assay [4] was “inactive” in each case.

Consider `CCCCCCCCCCCC/C=C/[C@@H](O)[C@H](C)NC(=O)CBr`, for which the inhibition entry in assay [3] and in assay [4] was “inactive” each time.

For `CCCCCCCCCCCCCC[C@@H](O)[C@@H](C)N`, the inhibition entry in assay [3] and in assay [4] was “inactive” throughout.

Take `CCCCCCCCCCCC/C=C/[C@@H](O)[C@@H](C)NC(=O)c1ccc(OCCOCCOC)cc1`: the inhibition entry in assay [1] and in assay [2] was “inactive” each time.

As for `CCCCCCCCCCCC/C=C/[C@@H](O)[C@@H](C)NC(=O)c1ccc(OCCCCCC)cc1`, the inhibition entry in assay [1] and in assay [2] was “inactive” throughout.

As for `CCCCCCCCCCCC/C=C/[C@@H](O)[C@@H](C)N`, the inhibition entry in assay [3] and in assay [4] was “inactive” in each case.

On to `CCCCCCCCCCCCCC[C@H](O)[C@H](C)NC(=O)CBr`, for which the inhibition result in assay [3] and in assay [4] was “inactive” throughout.

In the case of `CCCCCCCCCCCCCC[C@@H](O)[C@@H](C)NC(=O)c1ccc(CCCCCCC)cc1`, the inhibition entry in assay [3] and in assay [4] was “inactive” throughout.

For the compound `CCCCCCCCCCCCCC[C@H](O)[C@H](C)NC(=O)C(C)(C)C`, the inhibition result in assay [3] and in assay [4] was “inactive” throughout.

As to `CCCCCCCCCCCC/C=C/[C@H](O)[C@@H](C)NC(=O)c1ccc(CCCCCCC)cc1`, the inhibition entry in assay [3] and in assay [4] was “inactive” in each case.

Take `CCCCCCCCCCCC/C=C/[C@H](O)[C@H](C)NC(=O)C(C)(C)C`: the inhibition entry in assay [3] and in assay [4] was “inactive” each time.

For `CCCCCCCCCCCCCC[C@H](O)[C@@H](C)NC(=O)CCCCCCC`, the inhibition entry in assay [3] and in assay [4] was “inactive” throughout.

In the case of `CCCCCCCCCCCCCC[C@@H](O)[C@H](C)NC(=O)c1ccc(CCCCCCC)cc1`, the inhibition entry in assay [3] and in assay [4] was “inactive” throughout.

With `CCCCCCCCCCCC/C=C/[C@@H](O)[C@@H](C)NC(=O)c1ccc(OCOC)cc1`, the inhibition result in assay [1] and in assay [2] was “inactive” in each case.

With `CCCCCCCCCCCC/C=C/[C@H](O)[C@H](C)NC(=O)c1ccc(CCCCCCC)cc1`, the inhibition result in assay [3] and in assay [4] was “inactive” each time.

For the compound `CCCCCCCCCCCC/C=C/[C@H](O)[C@@H](C)NC(=O)CCCCCCC`, the inhibition entry in assay [3] and in assay [4] was “inactive” in each case.

In the case of `CCCCCCCCCCCC/C=C/[C@@H](O)[C@H](C)NC(=O)CCCCCCC`, the inhibition result in assay [3] and in assay [4] was “inactive” in each case.

On to `CCCCCCCCCCCCCC[C@@H](O)[C@H](C)N`, for which the inhibition entry in assay [3] and in assay [4] was “inactive” throughout.

Regarding `CCCCCCCCCCCCCC[C@H](O)[C@@H](C)NC(=O)c1ccc(CCCCCCC)cc1`, the inhibition result in assay [3] and in assay [4] was “inactive” each time.

For `CCCCCCCCCCCC/C=C/[C@@H](O)[C@@H](C)NC(=O)CBr`, the inhibition result in assay [3] and in assay [4] was “inactive” each time.

Consider `CCCCCCCCCCCCCC[C@@H](O)[C@H](C)NC(=O)CCCCCCC`, for which the inhibition entry in assay [3] and in assay [4] was “inactive” each time.

As for `CCCCCCCCCCCC/C=C/[C@@H](O)[C@H](C)N`, the inhibition result in assay [3] and in assay [4] was “inactive” throughout.

With `CCCCCCCCCCCCCC[C@H](O)[C@H](C)NC(=O)c1ccc(CCCCCCC)cc1`, the inhibition entry in assay [3] and in assay [4] was “inactive” in each case.

As to `CCCCCCCCCCCCCC[C@@H](O)[C@H](C)NC(=O)C(C)(C)C`, the inhibition result in assay [3] and in assay [4] was “inactive” in each case.

Regarding `CCCCCCCCCCCCCC[C@@H](O)[C@@H](C)NC(=O)CCCCCCC`, the inhibition result in assay [3] and in assay [4] was “inactive” each time.

`CCCCCCCCCCCC/C=C/[C@H](O)[C@H](C)N`: the inhibition entry in assay [3] and in assay [4] was “inactive” each time.

Consider `CCCCCCCCCCCC/C=C/[C@@H](O)[C@@H](C)NC(=O)c1ccc(OCCCCC)cc1`, for which the inhibition result in assay [1] and in assay [2] was “inactive” in each case.

Take `CCCCCCCCCCCC/C=C/[C@H](O)[C@H](C)NC(=O)CBr`: the inhibition entry in assay [3] and in assay [4] was “inactive” throughout.

On to `CCCCCCCCCCCCCC[C@H](O)[C@H](C)N`, for which the inhibition result in assay [3] and in assay [4] was “inactive” throughout.
